# What was measured:
# Human plasma kallikrein = Human plasma kallikrein (Homo sapiens (Human), UniProt P03952); assay: Plasma Kallikrein Assay; type: biochemical; settings: purified Human plasma kallikrein 0.5 nM, substrate Acetyl-K-P-R-AFC, pH 7.4; read-out: PKal IC50
# Experimental: (§1) The effectiveness of a compound of the present invention as an inhibitor of plasma kallikrein can be determined using a relevant purified serine protease, and an appropriate synthetic substrate. The rate of hydrolysis of the chromogenic or fluorogenic substrate by the relevant serine protease was measured both in the absence and presence of compounds of the present invention. Assays were conducted at rt or at 37° C. […] A decrease in the rate of fluorescence change in the presence of inhibitor is indicative of enzyme inhibition. Such methods are known to one skilled in the art. The results of this assay are expressed as the half-maximal inhibitory concentrations (IC50), or the inhibitory constant, Ki.
# Plasma kallikrein determinations were made in 50 mM HEPES buffer at pH 7.4 containing 150 mM NaCl, 5 mM CaCl2, and 0.1% PEG 8000 (polyethylene glycol; Fisher Scientific). Determinations were made using purified Human plasma kallikrein at a final concentration of 0.5 nM (Enzyme Research Laboratories) and the synthetic substrate, Acetyl-K-P-R-AFC (Sigma #C6608) at a concentration of […].
# Activity assays were performed by diluting a stock solution of substrate at least tenfold to a final concentration ≤0.2 Km into a solution containing enzyme or enzyme equilibrated with inhibitor. Times required to achieve equilibration between enzyme and inhibitor were determined in control experiments. The reactions were performed under linear progress curve conditions and fluorescence increase measured at 405 Ex/510 Em nm. Values were converted to percent inhibition of the control reaction (after subtracting 100% Inhibition value). IC50 was determined by inflection point from a four parameter logistic curve fit. Ki was calculated using the Cheng Prusoff equation, Ki=IC50/(1+[S]/Km)).
# Coagulation factor XIa = Coagulation factor XIa (Homo sapiens (Human), UniProt P03951); assay: Factor XIa Assay; type: biochemical; settings: human factor XIa 0.04 nM, substrate GPR-AFC, 30 min pre-incubation at 25° C., pH 7.4; read-out: FXIa IC50
# Experimental: as §1, with “Coagulation factor XIa” for “plasma kallikrein”
# Compounds were pre-incubated for 30 min at 25° C. with human (0.04 nM) factor XIa in 50 mM HEPES buffer with 150 mM sodium chloride, 5 mM calcium chloride, 0.1% PEG 8000, pH 7.4. factor XIa enzymatic activity was determined by addition of the substrate glycine-proline-arginine-7-amido-4-trifluoromethylcoumarin (GPR-AFC) and measurement of the fluorescence at 400/505 nm after a 60 min incubation at 25° C. The % inhibition for each data point was calculated from the data and analyzed using the log (inhibitor) vs. response four parameters equation to determine the half-maximal inhibitory concentrations (IC50). The IC50 were converted to equilibrium inhibitory constants (Ki) using the Cheng-Prusoff equation.
# Sequence of Human plasma kallikrein (P03952 391-638 limits assumed): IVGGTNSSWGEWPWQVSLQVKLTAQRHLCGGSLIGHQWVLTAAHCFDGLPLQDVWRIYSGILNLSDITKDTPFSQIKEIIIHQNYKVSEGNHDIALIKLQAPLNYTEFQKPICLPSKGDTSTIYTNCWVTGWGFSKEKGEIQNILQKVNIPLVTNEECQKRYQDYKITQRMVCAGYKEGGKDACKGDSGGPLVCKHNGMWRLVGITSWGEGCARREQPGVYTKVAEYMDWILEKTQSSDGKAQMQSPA
# Sequence of Human plasma kallikrein (P03952 20-390 partner limits assumed): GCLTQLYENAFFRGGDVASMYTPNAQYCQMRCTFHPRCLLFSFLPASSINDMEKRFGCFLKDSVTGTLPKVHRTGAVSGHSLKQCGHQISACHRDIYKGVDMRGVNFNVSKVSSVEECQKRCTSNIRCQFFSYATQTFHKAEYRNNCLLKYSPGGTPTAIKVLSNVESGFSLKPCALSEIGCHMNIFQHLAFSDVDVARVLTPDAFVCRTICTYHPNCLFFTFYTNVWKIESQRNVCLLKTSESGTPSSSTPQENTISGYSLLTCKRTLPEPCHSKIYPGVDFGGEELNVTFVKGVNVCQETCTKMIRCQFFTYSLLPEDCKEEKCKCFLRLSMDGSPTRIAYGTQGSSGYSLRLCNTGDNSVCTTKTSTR
# Sequence of Coagulation factor XIa (P03951 388-625 limits assumed): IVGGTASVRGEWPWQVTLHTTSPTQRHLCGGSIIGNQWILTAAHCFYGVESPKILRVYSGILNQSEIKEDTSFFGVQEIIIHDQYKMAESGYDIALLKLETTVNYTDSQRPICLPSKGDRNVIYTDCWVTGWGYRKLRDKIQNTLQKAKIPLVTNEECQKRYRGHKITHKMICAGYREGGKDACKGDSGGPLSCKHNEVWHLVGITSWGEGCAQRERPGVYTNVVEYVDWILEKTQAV
# Sequence of Coagulation factor XIa (P03951 19-387 partner limits assumed): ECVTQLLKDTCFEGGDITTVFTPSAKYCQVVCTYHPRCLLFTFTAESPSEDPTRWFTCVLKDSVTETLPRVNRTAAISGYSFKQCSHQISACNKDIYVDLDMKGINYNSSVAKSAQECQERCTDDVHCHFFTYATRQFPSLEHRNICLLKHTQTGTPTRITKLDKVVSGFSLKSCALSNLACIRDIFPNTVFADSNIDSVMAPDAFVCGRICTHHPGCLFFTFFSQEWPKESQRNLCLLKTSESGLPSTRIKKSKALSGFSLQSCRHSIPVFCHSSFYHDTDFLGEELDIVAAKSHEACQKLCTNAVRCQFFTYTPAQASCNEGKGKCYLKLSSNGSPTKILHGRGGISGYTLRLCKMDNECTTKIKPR
SMILES,IC50 (Human plasma kallikrein),IC50 (Coagulation factor XIa)
"O=C1Nc2ccc(Cl)c(F)c2[C@]2(CCN(c3cc(C(=O)NCc4ccc(N5CCC(C(F)(F)F)C5)nc4)cnn3)C2)O1 (stereo in doubt) [Example 9, (S)-6-(6-Chloro-5-fluoro-2-oxo-1,2-dihydrospiro[benzo[d][1,3]oxazine-4,3′-pyrrolidin]-1′-yl)-N-((6-(3-(trifluoromethyl)pyrrolidin-1-yl)pyridin-3-yl)methyl)pyridazine-4-carboxamide]",7.5 nM,10000 nM
"CN1CCCC1c1ccc(CNC(=O)c2cnnc(N3CC[C@]4(C3)OC(=O)Nc3ccc(Cl)c(F)c34)c2)cc1 (stereo in doubt) [Example 10, (S)-6-(6-Chloro-5-fluoro-2-oxo-1,2-dihydrospiro[benzo[d][1,3]oxazine-4,3′-pyrrolidin]-1′-yl)-N-(4-(1-methylpyrrolidin-2-yl)benzyl)pyridazine-4-carboxamide]",2.5 nM,10000 nM
"CN1CCCC1c1ccc(CNC(=O)c2cnnc(N3CC[C@]4(C3)OC(=O)Nc3ccc(Cl)c(F)c34)c2)cn1 (stereo in doubt) [Example 11, (S)-6-(6-Chloro-5-fluoro-2-oxo-1,2-dihydrospiro[benzo[d][1,3]oxazine-4,3′-pyrrolidin]-1′-yl)-N-((6-(1-methylpyrrolidin-2-yl)pyridin-3-yl)methyl)pyridazine-4-carboxamide]",3.9 nM,10000 nM
"CN1CC(F)(F)CC1c1ccc(CNC(=O)c2cnnc(N3CC[C@]4(C3)OC(=O)Nc3ccc(Cl)c(F)c34)c2)cn1 (stereo in doubt) [Example 13, (S)-6-(6-Chloro-5-fluoro-2-oxo-1,2-dihydrospiro[benzo[d][1,3]oxazine-4,3′-pyrrolidin]-1′-yl)-N-((6-(4,4-difluoro-1-methylpyrrolidin-2-yl)pyridin-3-yl)methyl)pyridazine-4-carboxamide]",81.6 nM,10000 nM
"O=C1Nc2ccc(Cl)c(F)c2[C@]2(CCN(c3cc(C(=O)NCc4ccc(N5CCC(F)(F)C5)nc4)cnn3)C2)O1 [Example 6, (S)-6-(6-Chloro-5-fluoro-2-oxo-1,2-dihydrospiro[benzo[d][1,3]oxazine-4,3′-pyrrolidin]-1′-yl)-N-((6-(3,3-difluoropyrrolidin-1-yl)pyridin-3-yl)methyl)pyridazine-4-carboxamide]",4 nM,10000 nM
"O=C1Nc2ccc(Cl)c(F)c2[C@]2(CCN(c3cc(C(=O)NCc4ccc(N5CCC(F)(F)C5)c(F)c4)cnn3)C2)O1 [Example 7, (S)-6-(6-Chloro-5-fluoro-2-oxo-1,2-dihydrospiro[benzo[d][1,3]oxazine-4,3′-pyrrolidin]-1′-yl)-N-(4-(3,3-difluoropyrrolidin-1-yl)-3-fluorobenzyl)pyridazine-4-carboxamide]",33.5 nM,10000 nM
"O=C1Nc2ccc(Cl)c(F)c2[C@]2(CCN(c3cc(C(=O)NCc4ccc(N5CCC(F)(F)C5)cc4F)cnn3)C2)O1 [Example 8, (S)-6-(6-Chloro-5-fluoro-2-oxo-1,2-dihydrospiro[benzo[d][1,3]oxazine-4,3′-pyrrolidin]-1′-yl)-N-(4-(3,3-difluoropyrrolidin-1-yl)-2-fluorobenzyl)pyridazine-4-carboxamide]",30.4 nM,10000 nM
"CN1CC(F)(F)C[C@H]1c1ccc(CNC(=O)c2cnnc(N3CCC4(C3)OC(=O)Nc3ccc(Cl)c(F)c34)c2)cc1 (stereo partly drawn) [Example 12, (S)-6-(6-Chloro-5-fluoro-2-oxo-1,2-dihydrospiro[benzo[d][1,3]oxazine-4,3′-pyrrolidin]-1′-yl)-N-(4-(4,4-difluoro-1-methylpyrrolidin-2-yl)benzyl)pyridazine-4-carboxamide]",39.6 nM,10000 nM
"O=C1Nc2ccc(Cl)c(F)c2[C@]2(CCN(c3cncc(C(=O)NCc4ccc(Cn5ccccc5=O)nc4)c3)C2)O1 [Example 15, (S)-5-(6-Chloro-5-fluoro-2-oxo-1,2-dihydrospiro[benzo[d][1,3]oxazine-4,3′-pyrrolidin]-1′-yl)-N-((6-((2-oxopyridin-1(2H)-yl)methyl)pyridin-3-yl)methyl)nicotinamide]",0.6 nM,10000 nM
"O=C1Nc2ccc(Cl)c(F)c2[C@]2(CCN(c3cc(C(=O)NCc4ccc(Cn5ccccc5=O)cc4)ccn3)C2)O1 [Example 16, (S)-2-(6-Chloro-5-fluoro-2-oxo-1,2-dihydrospiro[benzo[d][1,3]oxazine-4,3′-pyrrolidin]-1′-yl)-N-(4-((2-oxopyridin-1(2H)-yl)methyl)benzyl)isonicotinamide]",50 nM,10000 nM
"O=C1Nc2ccc(Cl)c(F)c2[C@]2(CCN(c3cc(C(=O)NCc4ccc(Cn5ccccc5=O)cc4)cnn3)C2)O1 [Example 17, (S)-6-(6-Chloro-5-fluoro-2-oxo-1,2-dihydrospiro[benzo[d][1,3]oxazine-4,3′-pyrrolidin]-1′-yl)-N-(4-((2-oxopyridin-1(2H)-yl)methyl)benzyl)pyridazine-4-carboxamide]",16.3 nM,10000 nM
"Cc1cnn(Cc2ccc(CNC(=O)c3cncc(N4CC[C@]5(C4)OC(=O)Nc4ccc(Cl)c(F)c45)n3)cc2)c1 [Example 18, (S)-6-(6-Chloro-5-fluoro-2-oxo-1,2-dihydrospiro[benzo[d][1,3]oxazine-4,3′-pyrrolidin]-1′-yl)-N-(4-((4-methyl-1H-pyrazol-1-yl)methyl)benzyl)pyrazine-2-carboxamide]",12.8 nM,10000 nM

# More lines, now with the values ahead:
IC50 (Human plasma kallikrein),IC50 (Coagulation factor XIa),SMILES
19.3 nM,10000 nM,"C[C@H]1CCN(c2ccc(CNC(=O)c3cncc(N4CC[C@]5(C4)OC(=O)Nc4ccc(Cl)c(F)c45)n3)cn2)C1 [Example 1, (S)-6-(6-Chloro-5-fluoro-2-oxo-1,2-dihydrospiro[benzo[d][1,3]oxazine-4,3′-pyrrolidin]-1′-yl)-N-((6-((S)-3-methylpyrrolidin-1-yl)pyridin-3-yl)methyl)pyrazine-2-carboxamide]"
6.8 nM,10000 nM,"O=C1Nc2ccc(Cl)c(F)c2[C@]2(CCN(c3cncc(C(=O)NCc4ccc(N5CCCC5)nc4)n3)C2)O1 [Example 2, (S)-6-(6-Chloro-5-fluoro-2-oxo-1,2-dihydrospiro[benzo[d][1,3]oxazine-4,3′-pyrrolidin]-1′-yl)-N-((6-(pyrrolidin-1-yl)pyridin-3-yl)methyl)pyrazine-2-carboxamide]"
9.5 nM,10000 nM,"C[C@H]1CCN(c2ccc(CNC(=O)c3cncc(N4CC[C@]5(C4)OC(=O)Nc4ccc(Cl)c(F)c45)c3)cn2)C1 [Example 3, (S)-5-(6-Chloro-5-fluoro-2-oxo-1,2-dihydrospiro[benzo[d][1,3]oxazine-4,3′-pyrrolidin]-1′-yl)-N-((6-((S)-3-methylpyrrolidin-1-yl)pyridin-3-yl)methyl)nicotinamide]"
1.2 nM,7440 nM,"C[C@H]1CCN(c2ccc(CNC(=O)c3cnnc(N4CC[C@]5(C4)OC(=O)Nc4ccc(Cl)c(F)c45)c3)cn2)C1 [Example 4, (S)-6-(6-Chloro-5-fluoro-2-oxo-1,2-dihydrospiro[benzo[d][1,3]oxazine-4,3′-pyrrolidin]-1′-yl)-N-((6-((S)-3-methylpyrrolidin-1-yl)pyridin-3-yl)methyl)pyridazine-4-carboxamide]"
3 nM,5650 nM,"O=C1Nc2ccc(Cl)c(F)c2[C@]2(CCN(c3cc(C(=O)NCc4ccc(N5CC[C@H](F)C5)nc4)cnn3)C2)O1 [Example 5, (S)-6-(6-Chloro-5-fluoro-2-oxo-1,2-dihydrospiro[benzo[d][1,3]oxazine-4,3′-pyrrolidin]-1′-yl)-N-((6-((S)-3-fluoropyrrolidin-1-yl)pyridin-3-yl)methyl)pyridazine-4-carboxamide]"
1.6 nM,10000 nM,"O=C1Nc2ccc(Cl)c(F)c2[C@]2(CCN(c3cncc(C(=O)NCc4ccc(Cn5ccccc5=O)nc4)n3)C2)O1 [Example 14, (S)-6-(6-Chloro-5-fluoro-2-oxo-1,2-dihydrospiro[benzo[d][1,3]oxazine-4,3′-pyrrolidin]-1′-yl)-N-((6-((2-oxopyridin-1(2H)-yl)methyl)pyridin-3-yl)methyl)pyrazine-2-carboxamide]"

# — patent US20240190892A1, “PLASMA KALLIKREIN INHIBITORS” (Merck Sharp & Dohme LLC, priority 2021, published 2024)
